# The source made the active and inactive calls.
# Experiments:
# [1] = target: T1, Voltage-gated N-type calcium channel alpha-1B subunit/Amyloid beta A4 precursor protein-binding family A member 1 (Homo sapiens, UniProt Q00975+Q02410); type: protein assay
# [2] = target: T1, Voltage-gated N-type calcium channel alpha-1B subunit/Amyloid beta A4 precursor protein-binding family A member 1; type: protein assay; remark: listed apart in the source
# [3] = target: T2, Short transient receptor potential channel 4 (Mus musculus, UniProt Q9QUQ5); experiment: calcium entry via TRPC4 opening agents – cell-based, HEK293 TRPC4/mu-opioid, Fluo-4 calcium, dose response (AID 434937); type: functional
# T2 sequence (Q9QUQ5 whole entry): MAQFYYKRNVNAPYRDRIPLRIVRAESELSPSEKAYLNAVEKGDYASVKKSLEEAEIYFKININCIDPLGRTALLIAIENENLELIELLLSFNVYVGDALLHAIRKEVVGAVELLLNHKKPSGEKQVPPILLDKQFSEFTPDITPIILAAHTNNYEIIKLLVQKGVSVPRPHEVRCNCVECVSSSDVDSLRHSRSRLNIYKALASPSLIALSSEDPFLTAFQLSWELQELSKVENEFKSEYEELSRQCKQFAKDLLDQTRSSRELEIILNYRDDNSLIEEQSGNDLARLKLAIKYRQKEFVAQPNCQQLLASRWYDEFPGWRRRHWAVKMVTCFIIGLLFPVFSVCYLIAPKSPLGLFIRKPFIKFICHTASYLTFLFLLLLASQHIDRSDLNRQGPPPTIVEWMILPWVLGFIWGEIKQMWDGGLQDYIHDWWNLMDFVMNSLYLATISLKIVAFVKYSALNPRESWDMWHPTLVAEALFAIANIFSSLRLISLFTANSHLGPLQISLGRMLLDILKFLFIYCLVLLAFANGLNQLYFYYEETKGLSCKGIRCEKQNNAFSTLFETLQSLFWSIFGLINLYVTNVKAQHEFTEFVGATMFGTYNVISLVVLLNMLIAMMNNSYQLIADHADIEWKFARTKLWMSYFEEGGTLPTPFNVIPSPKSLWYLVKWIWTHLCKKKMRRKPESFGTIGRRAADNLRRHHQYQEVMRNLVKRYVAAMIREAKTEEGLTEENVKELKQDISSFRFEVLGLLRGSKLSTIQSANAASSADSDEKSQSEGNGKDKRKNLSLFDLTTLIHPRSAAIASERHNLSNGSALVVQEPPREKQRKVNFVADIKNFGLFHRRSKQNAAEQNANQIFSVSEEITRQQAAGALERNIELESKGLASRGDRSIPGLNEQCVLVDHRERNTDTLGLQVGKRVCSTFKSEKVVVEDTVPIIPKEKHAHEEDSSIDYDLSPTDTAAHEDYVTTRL
# [4] = tested on: Streptococcus; experiment: GAS UMAA2166 growth inhibition – luminescence, BacTiterGlo, counter-screen for streptokinase expression inhibitor project, dose response (AID 1915); type: functional, organism-based;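 also: potency for reduction of bacterial viability or growth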
# [5] = target: T3, Streptokinase A (Streptococcus pyogenes serotype M1, UniProt P10520); experiment: viability-normalized secreted streptokinase activity reduction – plasminogen activation absorbance, OD405, dose response (AID 1914); type: functional, Streptococcus pyogenes M1 GAS;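 also: secreted streptokinase activity via plasminogen activation per viability signal from cell pellet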
# T3 sequence (P10520 whole entry): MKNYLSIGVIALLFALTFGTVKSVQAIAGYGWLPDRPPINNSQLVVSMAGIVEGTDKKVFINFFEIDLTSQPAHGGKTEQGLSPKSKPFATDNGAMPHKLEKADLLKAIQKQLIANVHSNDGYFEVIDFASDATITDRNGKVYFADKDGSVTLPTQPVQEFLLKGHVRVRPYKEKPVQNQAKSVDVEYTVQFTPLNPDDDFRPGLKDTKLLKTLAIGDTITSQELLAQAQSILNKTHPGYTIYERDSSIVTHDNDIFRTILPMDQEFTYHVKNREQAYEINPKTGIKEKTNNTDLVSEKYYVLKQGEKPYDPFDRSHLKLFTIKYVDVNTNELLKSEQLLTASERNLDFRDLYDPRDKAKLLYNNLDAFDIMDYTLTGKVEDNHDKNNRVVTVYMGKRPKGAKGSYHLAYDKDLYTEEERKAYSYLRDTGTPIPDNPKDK
# [6] = target: T4, Aminopeptidase N (Plasmodium falciparum FcB1/Columbia, UniProt O96935); experiment: malaria alanyl aminopeptidase activity blockers – biochemical, fluorogenic H-Leu-NHMec substrate, 1536-well (AID 1445); design: species or system Plasmodium falciparum 3D7, 3D7
# T4 sequence (O96935 whole entry): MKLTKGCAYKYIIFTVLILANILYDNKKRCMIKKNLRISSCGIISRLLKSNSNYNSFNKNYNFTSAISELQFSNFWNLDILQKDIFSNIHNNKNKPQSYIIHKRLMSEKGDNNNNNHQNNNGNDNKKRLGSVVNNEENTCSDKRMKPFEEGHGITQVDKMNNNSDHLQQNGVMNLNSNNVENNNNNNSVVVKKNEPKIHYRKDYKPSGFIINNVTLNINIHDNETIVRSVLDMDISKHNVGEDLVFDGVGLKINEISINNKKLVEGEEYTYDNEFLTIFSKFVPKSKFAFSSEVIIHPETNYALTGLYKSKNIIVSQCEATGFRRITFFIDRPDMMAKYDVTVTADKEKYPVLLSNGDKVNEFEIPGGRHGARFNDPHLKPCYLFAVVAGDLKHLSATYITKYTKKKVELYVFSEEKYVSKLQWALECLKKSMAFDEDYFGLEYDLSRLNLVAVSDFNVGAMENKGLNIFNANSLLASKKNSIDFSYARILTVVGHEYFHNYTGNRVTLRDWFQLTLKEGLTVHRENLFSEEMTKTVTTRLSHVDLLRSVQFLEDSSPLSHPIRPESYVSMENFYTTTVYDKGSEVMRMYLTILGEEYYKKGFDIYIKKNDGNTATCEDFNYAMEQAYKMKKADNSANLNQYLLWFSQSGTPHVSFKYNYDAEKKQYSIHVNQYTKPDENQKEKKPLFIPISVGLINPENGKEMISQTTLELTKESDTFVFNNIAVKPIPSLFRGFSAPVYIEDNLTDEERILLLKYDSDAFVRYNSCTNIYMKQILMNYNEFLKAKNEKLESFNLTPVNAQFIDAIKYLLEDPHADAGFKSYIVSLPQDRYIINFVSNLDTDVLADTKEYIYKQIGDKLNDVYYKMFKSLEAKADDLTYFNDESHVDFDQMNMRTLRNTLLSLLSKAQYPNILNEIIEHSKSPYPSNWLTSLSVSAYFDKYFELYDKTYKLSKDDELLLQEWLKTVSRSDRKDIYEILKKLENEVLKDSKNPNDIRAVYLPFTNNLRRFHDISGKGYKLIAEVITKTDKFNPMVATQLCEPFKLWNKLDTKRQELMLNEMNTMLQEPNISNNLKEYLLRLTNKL
# [7] = tested on: Streptococcus sp. 'group A'; experiment: Streptococcus pyogenes SK(-)GAS viability under kanamycin – luminescence, BacTiterGlo, confirmation, counter-screen for streptokinase expression inhibitor project, dose response (AID 1900); type: functional, organism-based
# [8] = target: Induced myeloid leukemia cell differentiation protein Mcl-1 (Homo sapiens, UniProt Q07820); type: functional
# [9] = target: Cytochrome P450 2C9 (Homo sapiens, UniProt P11712)
# [10] = target: Peroxisome proliferator-activated receptor gamma/Nuclear receptor coactivator 3 (Homo sapiens, UniProt P37231); type: functional;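 also: agonist potency for raising coactivator recruitment to the receptor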
# [11] = target: Peroxisome proliferator-activated receptor gamma/Nuclear receptor coactivator 1 (Homo sapiens, UniProt P37231); type: functional;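 also: agonist potency as compounds enhance coactivator SRC-1 recruitment to PPARgamma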
# [12] = target: Peroxisome proliferator-activated receptor gamma/Nuclear receptor coactivator 2 (Homo sapiens, UniProt P37231); type: functional;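 also: agonist potency for raising coactivator recruitment to the receptor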
# [13] = tested on: HEK293; experiment: inhibition of NOD1-driven NF-kB reporter – cell-based, luminescence, uHTS, primary screen (AID 1578); type: functional; settings: Homo sapiens
# [14] = NIH3T3 cell viability loss – ATP luminescence, mouse fibroblasts, counter-screen, dose response (AID 2010); type: functional, cell-based;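 also: cells exposed to compound for about 90 hours before reading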
# [15] = tested on: HEK293; experiment: NOD2 signaling inhibitors in MDP-stimulated cells, cell-based, uHTS, luminescence (AID 2001); type: functional; settings: Homo sapiens
# [16] = target: Nucleotide-binding oligomerization domain-containing protein 2 (Homo sapiens, UniProt Q9HC29); experiment: inhibition of NOD2-driven NF-kB reporter – cell-based, luminescence, uHTS, HEK293 (AID 1566); type: functional
# [17] = tested on: HEK293; experiment: cells; type: functional, cell-based; settings: Homo sapiens
# [18] = tested on: HEK293; experiment: cells; type: functional, cell-based; settings: Homo sapiens; remark: listed apart in the source
# [19] = Trypanosoma cruzi growth suppression in host cells – NIH3T3 host cells, beta-gal luminescence, confirmation (AID 2044); type: functional, cell-based;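 also: intracellular parasites grown in NIH/3T3 mouse fibroblasts as host cells; luminescent beta-galactosidase reporter signal from transgenic T. cruzi replicating inside host cells; inhibitors lower the luminescence signal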
# [20] = target: Cytochrome P450 2C19 (Homo sapiens, UniProt P33261); experiment: Cytochrome panel assay with activity outcomes. Panel member name: p450-cyp2c19 Compounds with AC50 equal or less than 10 uM are considered active; type: functional
# [21] = THP-1 cell cytotoxicity, dose response, cytotoxicity control for non-replicating M. tuberculosis project (AID 489025); type: functional
# [22] = Vero E6 cell cytotoxicity, dose response, cytotoxicity control for non-replicating M. tuberculosis project, secondary assay (AID 492998); type: functional, VeroE6; settings: Vero C1008
# [23] = cells; type: functional
# [24] = Luminescence Cell-Based Dose Response HTS to Identify Activators of Luciferase Translation or Activity in H4 […] Cells. [Related pubchem assays: 1829 (Project Summary), 1814 (Primary HTS)]; type: functional
# [25] = Luminescence Cell-Based Dose Confirmation HTS to Identify Activators of 5'UTR Stem-Loop Driven Alpha-Synuclein mRNA Translation in H4 Neuroglioblastoma Cells. [Related pubchem assays: 1829 (Project Summary), 1814 (Primary HTS)]; type: functional
# [26] = tested on: H4; experiment: Luminescence Cell-Based Dose Response HTS to Identify Activators of 5'UTR Stem-Loop Driven Prion Protein mRNA Translation in H4 Neuroglioblastoma Cells. [Related pubchem assays: 1829 (Project Summary), 1814 (Primary HTS)]; type: functional; settings: Homo sapiens
# [27] = target: T5, X-box-binding protein 1 (Homo sapiens, UniProt P17861); type: functional, Cricetulus griseus;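 also: confirmatory dose-response counter-screen serving a CHOP assay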
# T5 sequence (P17861 whole entry): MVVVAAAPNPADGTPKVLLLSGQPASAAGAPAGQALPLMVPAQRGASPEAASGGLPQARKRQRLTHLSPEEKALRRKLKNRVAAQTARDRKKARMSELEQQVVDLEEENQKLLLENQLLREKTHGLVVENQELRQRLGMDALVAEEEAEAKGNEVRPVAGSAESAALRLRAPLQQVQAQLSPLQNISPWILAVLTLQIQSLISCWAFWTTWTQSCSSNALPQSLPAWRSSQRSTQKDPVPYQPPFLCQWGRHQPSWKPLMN
# [28] = viability of uninfected HEp-2 cells – cell-based, HTS, cytotoxicity control for RSV inhibitor project, dose response (AID 2410); type: functional; settings: human respiratory syncytial virus
# Chain of Peroxisome proliferator-activated receptor gamma/Nuclear receptor coactivator 2 (P37231 whole entry): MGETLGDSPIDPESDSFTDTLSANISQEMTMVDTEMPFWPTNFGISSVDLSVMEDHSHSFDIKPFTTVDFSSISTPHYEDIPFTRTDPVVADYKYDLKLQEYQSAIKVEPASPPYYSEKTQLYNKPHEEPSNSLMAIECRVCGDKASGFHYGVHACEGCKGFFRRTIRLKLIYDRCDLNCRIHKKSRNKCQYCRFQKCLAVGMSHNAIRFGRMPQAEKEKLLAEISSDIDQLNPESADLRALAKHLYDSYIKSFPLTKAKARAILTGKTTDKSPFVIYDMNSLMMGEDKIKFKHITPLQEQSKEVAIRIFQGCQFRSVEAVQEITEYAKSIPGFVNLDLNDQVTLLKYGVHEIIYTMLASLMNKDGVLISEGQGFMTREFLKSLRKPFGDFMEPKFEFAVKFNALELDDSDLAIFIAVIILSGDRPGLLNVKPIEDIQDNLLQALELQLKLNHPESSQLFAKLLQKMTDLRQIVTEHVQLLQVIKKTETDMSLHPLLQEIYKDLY
# Chain of Peroxisome proliferator-activated receptor gamma/Nuclear receptor coactivator 2 (Q15596 whole entry, further chain): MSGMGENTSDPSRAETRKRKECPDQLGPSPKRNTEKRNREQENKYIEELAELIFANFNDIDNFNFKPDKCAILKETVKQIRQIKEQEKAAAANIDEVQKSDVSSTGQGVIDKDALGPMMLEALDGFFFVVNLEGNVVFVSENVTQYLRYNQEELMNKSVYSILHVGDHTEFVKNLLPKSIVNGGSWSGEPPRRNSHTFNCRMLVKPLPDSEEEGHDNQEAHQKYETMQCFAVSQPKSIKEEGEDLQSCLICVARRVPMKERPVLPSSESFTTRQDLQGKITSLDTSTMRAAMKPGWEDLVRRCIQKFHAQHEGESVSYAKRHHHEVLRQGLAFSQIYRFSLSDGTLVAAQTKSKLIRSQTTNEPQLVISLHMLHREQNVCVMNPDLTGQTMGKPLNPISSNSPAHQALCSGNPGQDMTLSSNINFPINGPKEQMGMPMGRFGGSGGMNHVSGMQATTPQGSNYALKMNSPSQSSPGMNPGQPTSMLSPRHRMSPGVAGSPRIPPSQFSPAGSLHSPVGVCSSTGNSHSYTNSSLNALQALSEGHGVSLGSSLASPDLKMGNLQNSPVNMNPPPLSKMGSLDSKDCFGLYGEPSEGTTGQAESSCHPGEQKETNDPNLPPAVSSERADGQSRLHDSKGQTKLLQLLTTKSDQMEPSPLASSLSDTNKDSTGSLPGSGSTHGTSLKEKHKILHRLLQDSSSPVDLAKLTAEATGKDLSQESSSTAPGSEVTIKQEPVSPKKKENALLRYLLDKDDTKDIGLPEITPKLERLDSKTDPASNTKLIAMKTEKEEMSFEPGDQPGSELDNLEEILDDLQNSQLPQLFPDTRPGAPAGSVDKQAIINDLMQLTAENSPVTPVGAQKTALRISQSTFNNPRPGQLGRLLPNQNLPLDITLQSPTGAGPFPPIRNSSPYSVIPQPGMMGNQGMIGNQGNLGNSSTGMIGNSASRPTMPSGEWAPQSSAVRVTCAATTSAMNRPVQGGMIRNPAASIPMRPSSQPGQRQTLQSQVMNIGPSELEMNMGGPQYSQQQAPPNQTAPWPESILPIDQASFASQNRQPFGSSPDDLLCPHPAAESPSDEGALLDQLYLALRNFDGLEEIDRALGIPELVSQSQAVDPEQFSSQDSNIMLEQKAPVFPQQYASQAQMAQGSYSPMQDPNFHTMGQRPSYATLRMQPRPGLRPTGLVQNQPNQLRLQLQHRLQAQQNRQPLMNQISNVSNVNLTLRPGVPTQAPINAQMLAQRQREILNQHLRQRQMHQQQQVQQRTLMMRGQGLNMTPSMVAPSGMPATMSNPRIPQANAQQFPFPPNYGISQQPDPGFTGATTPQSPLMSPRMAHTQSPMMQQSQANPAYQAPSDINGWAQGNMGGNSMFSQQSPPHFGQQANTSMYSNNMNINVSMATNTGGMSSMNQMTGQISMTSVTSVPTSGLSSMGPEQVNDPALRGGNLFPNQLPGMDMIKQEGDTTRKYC
# Chain of Peroxisome proliferator-activated receptor gamma/Nuclear receptor coactivator 3 (P37231 whole entry): as the sequence (P37231 whole entry) above
# Chain of Peroxisome proliferator-activated receptor gamma/Nuclear receptor coactivator 3 (Q9Y6Q9 whole entry, further chain): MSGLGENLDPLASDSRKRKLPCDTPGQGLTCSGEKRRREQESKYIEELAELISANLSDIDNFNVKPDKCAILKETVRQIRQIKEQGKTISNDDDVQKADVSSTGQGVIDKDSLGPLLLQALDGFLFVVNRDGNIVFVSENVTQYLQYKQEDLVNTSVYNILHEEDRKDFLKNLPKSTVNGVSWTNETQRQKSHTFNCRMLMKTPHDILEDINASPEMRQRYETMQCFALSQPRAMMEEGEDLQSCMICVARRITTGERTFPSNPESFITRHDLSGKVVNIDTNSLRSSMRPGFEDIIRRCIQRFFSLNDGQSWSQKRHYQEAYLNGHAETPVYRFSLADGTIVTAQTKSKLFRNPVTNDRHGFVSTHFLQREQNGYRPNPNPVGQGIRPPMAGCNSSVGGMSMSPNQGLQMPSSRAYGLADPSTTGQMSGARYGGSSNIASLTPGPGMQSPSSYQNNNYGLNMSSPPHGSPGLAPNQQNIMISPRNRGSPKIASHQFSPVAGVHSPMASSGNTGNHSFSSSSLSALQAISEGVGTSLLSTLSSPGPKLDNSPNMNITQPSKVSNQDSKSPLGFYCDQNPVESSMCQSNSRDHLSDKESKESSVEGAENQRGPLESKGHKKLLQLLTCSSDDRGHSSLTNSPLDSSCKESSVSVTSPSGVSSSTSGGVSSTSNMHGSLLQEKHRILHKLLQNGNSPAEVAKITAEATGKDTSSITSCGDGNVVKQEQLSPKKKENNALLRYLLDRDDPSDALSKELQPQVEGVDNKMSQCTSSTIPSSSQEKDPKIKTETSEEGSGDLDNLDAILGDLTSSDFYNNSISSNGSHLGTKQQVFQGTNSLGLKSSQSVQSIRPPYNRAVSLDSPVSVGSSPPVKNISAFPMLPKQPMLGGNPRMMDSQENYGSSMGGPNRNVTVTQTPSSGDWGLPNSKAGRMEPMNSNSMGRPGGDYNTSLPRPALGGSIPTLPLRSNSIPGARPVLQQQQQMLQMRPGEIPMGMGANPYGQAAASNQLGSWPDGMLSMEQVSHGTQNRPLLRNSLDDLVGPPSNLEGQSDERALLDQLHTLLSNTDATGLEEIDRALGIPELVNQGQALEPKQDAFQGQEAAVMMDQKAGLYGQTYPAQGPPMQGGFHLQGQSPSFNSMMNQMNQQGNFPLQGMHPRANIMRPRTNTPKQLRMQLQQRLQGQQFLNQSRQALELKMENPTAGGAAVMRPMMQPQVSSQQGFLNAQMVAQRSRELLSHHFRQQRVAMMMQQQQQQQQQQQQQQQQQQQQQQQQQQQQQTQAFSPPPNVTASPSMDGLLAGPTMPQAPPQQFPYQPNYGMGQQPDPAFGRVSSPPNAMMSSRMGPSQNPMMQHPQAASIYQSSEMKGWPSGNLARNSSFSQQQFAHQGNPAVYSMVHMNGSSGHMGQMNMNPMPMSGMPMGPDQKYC
# Chain of Cytochrome P450 2C9 (P11712 whole entry): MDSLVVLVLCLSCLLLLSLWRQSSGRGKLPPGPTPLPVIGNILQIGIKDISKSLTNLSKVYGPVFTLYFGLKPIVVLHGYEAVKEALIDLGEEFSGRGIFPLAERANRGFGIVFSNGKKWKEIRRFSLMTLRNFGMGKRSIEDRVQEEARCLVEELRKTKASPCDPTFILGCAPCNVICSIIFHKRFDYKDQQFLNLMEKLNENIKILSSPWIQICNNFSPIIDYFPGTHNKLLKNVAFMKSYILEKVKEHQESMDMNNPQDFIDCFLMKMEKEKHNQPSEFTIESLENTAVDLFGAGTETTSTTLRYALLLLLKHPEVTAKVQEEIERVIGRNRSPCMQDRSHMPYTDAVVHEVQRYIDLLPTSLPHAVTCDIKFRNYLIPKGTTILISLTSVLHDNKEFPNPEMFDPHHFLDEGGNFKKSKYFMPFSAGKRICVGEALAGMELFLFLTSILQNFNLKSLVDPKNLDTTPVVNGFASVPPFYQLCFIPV
# Chain of Induced myeloid leukemia cell differentiation protein Mcl-1 (Q07820 whole entry): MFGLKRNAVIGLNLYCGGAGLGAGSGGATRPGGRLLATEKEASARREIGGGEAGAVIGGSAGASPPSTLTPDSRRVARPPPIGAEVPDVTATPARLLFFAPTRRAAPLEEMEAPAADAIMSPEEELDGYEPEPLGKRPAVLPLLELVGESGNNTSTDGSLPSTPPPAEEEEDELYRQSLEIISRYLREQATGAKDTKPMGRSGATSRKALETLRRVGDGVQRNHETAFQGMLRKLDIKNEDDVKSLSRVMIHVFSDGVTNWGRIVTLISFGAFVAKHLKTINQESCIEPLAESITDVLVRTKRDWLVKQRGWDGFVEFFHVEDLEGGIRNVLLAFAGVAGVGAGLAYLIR
smiles,measurement,setting,value
O=C(NCc1ccco1)c1ccc(Cl)nc1,IC50,[1],> 50 µM (inactive)
same,IC50,[2],26.5 µM (active)
CN(CCc1nc2cc(Cl)ccc2[nH]1)Cc1nc(CC2CC2)no1,EC50,[3],5.31 µM (active)
COc1ccc(C(=O)Nc2cccc(/C=C(\CCC(=O)O)c3nc4ccccc4s3)c2)cc1,EC50,[4],22.9 µM (active)
same,IC50,[1],> 50 µM (inactive)
same,EC50,[5],> 50 µM (not active)
same,IC50,[6],21.8 µM (active)
same,EC50,[7],7.83 µM (active)
same,IC50,[2],4.28 µM (active)
same,IC50,[8],4.32 µM (active)
CCc1ccccc1N=C(S)NCc1ccc2c(c1)OCO2,AC50,[9],inconclusive
COCCn1c(=O)c(C)nc2cnc(N3CCN(C)CC3)nc21,AC50,[9],inconclusive
Cc1cc(NC(=O)CN2CCc3ccccc3C2)nc2c1c(=O)oc1ccccc12,EC50,[3],1.19 µM (active)
Cc1ccc(C(=O)Nc2ccc(N3CCCC3)cc2)cc1,IC50,[8],17.9 µM (not active)
same,EC50,[10],> 79.4 µM (not active)
same,EC50,[11],> 79.4 µM (not active)
same,EC50,[12],> 79.4 µM (not active)
COc1cc(OC)c(OC)cc1/C=C1\CCC/C(=C\c2cc(OC)c(OC)cc2OC)C1=O,EC50,[13],15.5 µM (active)
same,EC50,[14],6.67 µM (active)
same,IC50,[15],6.27 µM (active)
same,EC50,[16],13 µM (active)
same,IC50,[17],5.03 µM (active)
same,IC50,[18],18.1 µM (active)
same,EC50,[19],1.51 µM (active)
CCCC12CN3CC(CCC)(CN(C1)C3C(O)C(O)C(O)CO)C2=O (stereo unspecified),AC50,[20],inconclusive
same,AC50,[9],inconclusive
O=C(Nc1nc2ccccc2[nH]1)c1cccc(Cl)c1,EC50,[4],69.4 µM (active)
same,CC50,[21],> 40 µM (active)
same,CC50,[22],> 20 µM (active)
same,IC50,[23],7.11 µM (active)
same,EC50,[5],> 150 µM (not active)
same,EC50,[7],8.88 µM (active)
CCc1cccc(CC)c1N=C(S)NCC(c1cccnc1)N(C)C (stereo unspecified),EC50,[3],0.168 µM (active)
Cn1c(=O)c(C(=O)NC2CCCCCCC2)c(O)c2ccccc21,EC50,[10],> 79.4 µM (not active)
same,EC50,[24],22.8 µM (active)
same,EC50,[25],15.6 µM (active)
same,EC50,[11],> 79.4 µM (not active)
same,EC50,[26],> 120 µM (not active)
same,EC50,[12],69.1 µM (not active)
O=S(=O)(c1ccc(Cl)cc1)N1CCN2CCCC2C1 (stereo unspecified),EC50,[3],4.73 µM (active)
CCN(CC)c1ccc(/C=N/c2cc(C)ccc2C)c(O)c1,EC50,[10],> 79.4 µM (not active)
same,EC50,[11],> 79.4 µM (not active)
same,EC50,[12],> 79.4 µM (not active)
CN1CCN(NS(=O)(=O)c2cccs2)CC1,IC50,[1],> 50 µM (inactive)
same,IC50,[2],51.3 µM (active)
Fc1ccc(-c2nn(-c3ccccc3)cc2CNCc2ccccc2)cc1,Absolute IC50 (XBP1),[27],10 µM
same,CC50,[21],26 µM (active)
same,IC50,[23],21.6 µM (active)
same,CC50,[28],17.9 µM (active)
same,EC50,[3],5.31 µM (active)
O=C(CC(=O)c1cc(Cl)ccc1O)c1ccccc1,EC50,[4],10.8 µM (active)
same,CC50,[21],14.6 µM (active)
same,CC50,[22],8.73 µM (active)
same,IC50,[23],9.73 µM (active)
same,EC50,[5],> 150 µM (not active)
same,EC50,[7],1.08 µM (active)

# Source: ChEMBL document CHEMBL1201862, “PubChem BioAssay data set” (2004)
